Test results published in US20140121235A1, “Method for Treating S6K-Overexpressing Cancers” (Rush University Medical Center, priority 2012, published 2014).

Key:
[1] = molecular target: recombinant p70 S6 kinase (S6K1) (Homo sapiens, UniProt P23443); experiment: In vitro p70 S6 kinase assay (ADP-Glo Kinase assay system); format: biochemical; details: 30 min pre-incubation, ATP 10 μM, 1 hr, read-out: IC50, inhibition of recombinant S6K1 activity
Procedure: Leflunomide and A77 1726 diluted at the final concentrations as indicated were pre-mixed with S6K1 for 30 min, followed by the addition of peptide substrate of S6K1 and incubation for 1 hr. S6K1 activity was measured by using a ADP-Glo™ system. The experiment was repeated with similar results. The data represents the mean±standard deviation from one experiment in triplicate.
The ability of lefiunomide and A77 1726 to inhibit p70 S6 kinase assay was conducted by using an ADP-Glo™ Kinase assay system (Promega Corporation, Madison, Wis.). Briefly, A77 1726 or leflunomide diluted in the kinase buffer was mixed with recombinant p70 S6 kinase (100 ng/reaction) and incubated at room temperature for 30 min. Peptide substrate of p70 S6 kinase (5 μg/reaction) and ATP (10 μM, final concentration) was added, with a total final volume of 25 μl. After incubation for 1 hr, ADP-Glo™ reagent (25 μl) was added to each reaction. After incubation for 40 min, kinase detection substrate (luciferin) (50 μl/reaction) was added. After incubation fix 30 min, luciferase activity was measured by reading in a luminescence plate reader. The experiment was conducted in triplicate and repeated once with similar results. The data from one experiment were presented as mean±standard deviation.

[2] = system: ribosomal protein S6^S235/S236 phosphorylation; experiment: Western blot of S6 phosphorylation in A375 cells; format: cell-based; details: Homo sapiens, A-375; read-out: IC50 to inhibit S6 phosphorylation in cell culture
Procedure: (§1) A375 cells seeded in a 6-well plate were starved in DMEM medium containing 0.5% FBS for 2 hr and treated with the indicated concentration of A77 1726 or PLX 4720 (1 μM) for another 2 hr (A) or treated with A77 1726 (100 μM) for the indicated time (B & C). Cells were harvested and analyzed for protein phosphorylation by specific antibodies as indicated. Protein loading was monitored by stripping membrane and re-probing with antibodies against non-phosphorylated proteins. […] A375 cells seeded in a 6-well plate were starved in DMEM medium containing 05% FBS for 2 hr and treated with the indicated concentration of A77 1726 in the absence or presence of uridine (200 μM). Phosphorylated and total proteins were analyzed by Western blot as described above.
(§2) A375 cells seeded in 6-well plates were starved in DMEM medium containing 0.5% FBS for 2 hr and then pre-treated with vehicle (0.1% dimethyl sulfoxide), LY294002 (10 μM) (A), PPP (1 μM) (B), or the inhibitors of the MAP kinase pathway (PLX4720, 1 μM; U0126, 10 μM; PD98059, 10 μM) (C) for 1 hr. Cells were then treated with A77 1726 (100 μM) or rapamycin (20 nM) as indicated for 2 hr. Cells were harvested and analyzed for protein phosphorylation by specific antibodies as indicated. Protein loading was monitored by stripping membrane and re-probing with antibodies against non-phosphorylated proteins.
(§3) Cells grown in 6-well plates were harvested and lysed in NP-40 lysis buffer (50 mM Tris-HCI (pH 8.0), 150 mM NaCl, 1% NP-40, 5 mM EDTA, 10 μg/ml aprotinin, 10 μg/ml leupeptin, and 1 mM phenylmethylsulfonyl fluoride). After incubation on ice for 30 min, the cell lysates were prepared by spinning down at 4° C., 15,000 rpm for 15 min. After electrophoresis and transfer to Immobolin membrane, proteins of interest were probed with their specific antibodies, followed by horseradish peroxidase-conjugated goat anti-rabbit IgG and SuperSignal Western Pico enhanced chemiluminoscence substrate (Pierce Chemical Co., Rockford, Ill.).
(§4) The PI-3 and MAP kinase pathways play an important role in cell proliferation, differentiation, and cell cycle progress. Multiple genes in these two pathways are frequently mutated and have a commanding role in driving tumorigenesis and tumor cell proliferation (2; 3). […] Here we tested whether A77 1726 affected the activation of MAP and PI-3 kinase pathways. A375 cells grown in 6-well plates were starved in the media containing 0.5% FBS for 2 hr and then treated with the indicated concentration of A77 1726. […] We next explored the effect of A77 1726 in phosphorylation of the molecules in the PI-3 kinase pathway.

[3] = system: ERK1/2^T202/Y204 and MEK1/2^S217/S221 phosphorylation; experiment: Western blot of MAP kinase pathway phosphorylation in A375 cells; format: cell-based
Procedure: as §1, §2, §3, §4

Raf-1 phosphorylation = experiment: Western blot of Raf-1 phosphorylation in A375 cells; format: cell-based
Procedure: A375 cells seeded in a 6-well plate were starved in DMEM medium containing 0.5% FBS for 2 hr and treated with the indicated concentration of A77 1726 or PLX 4720 (1 μM) for another 2 hr (A) or treated with A77 1726 (100 μM) for the indicated time (B & C). Cells were harvested and analyzed for protein phosphorylation by specific antibodies as indicated. Protein loading was monitored by stripping membrane and re-probing with antibodies against non-phosphorylated proteins. (D) Uridine fails to reverse the effect of A77 1726 on the PI-3 and MAP kinase pathways. A375 cells seeded in a 6-well plate were starved in DMEM medium containing 05% FBS for 2 hr and treated with the indicated concentration of A77 1726 in the absence or presence of uridine (200 μM). Phosphorylated and total proteins were analyzed by Western blot as described above.
Cells grown in 6-well plates were harvested and lysed in NP-40 lysis buffer (50 mM Tris-HCI (pH 8.0), 150 mM NaCl, 1% NP-40, 5 mM EDTA, 10 μg/ml aprotinin, 10 μg/ml leupeptin, and 1 mM phenylmethylsulfonyl fluoride). After incubation on ice for 30 min, the cell lysates were prepared by spinning down at 4° C., 15,000 rpm for 15 min. […]

Sequence of recombinant p70 S6 kinase (S6K1) (P23443 whole entry): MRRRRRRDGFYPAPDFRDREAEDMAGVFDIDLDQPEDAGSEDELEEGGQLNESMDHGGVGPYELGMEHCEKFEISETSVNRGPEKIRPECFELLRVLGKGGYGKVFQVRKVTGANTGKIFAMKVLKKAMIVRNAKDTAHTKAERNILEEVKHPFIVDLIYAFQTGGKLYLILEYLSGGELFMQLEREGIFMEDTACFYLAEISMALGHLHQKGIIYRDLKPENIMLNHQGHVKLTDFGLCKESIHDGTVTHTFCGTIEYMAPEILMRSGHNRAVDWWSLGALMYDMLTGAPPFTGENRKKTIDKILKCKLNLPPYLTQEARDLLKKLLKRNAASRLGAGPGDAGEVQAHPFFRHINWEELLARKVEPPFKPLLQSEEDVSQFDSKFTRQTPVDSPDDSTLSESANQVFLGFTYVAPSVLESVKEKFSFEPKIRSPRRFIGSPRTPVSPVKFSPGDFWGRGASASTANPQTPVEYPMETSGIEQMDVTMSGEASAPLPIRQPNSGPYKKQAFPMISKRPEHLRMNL

Structure (SMILES): Cc1oncc1C(=O)Nc1ccc(C(F)(F)F)cc1 [leflunomide]
- IC50 [1]: ~55 µM
- IC50 [2]: 50 to 75 µM
- effect on ERK1/2 and MEK phosphorylation ([3]; A375 cells starved in 0.5% FBS, A77 1726 or leflunomide at indicated concentrations, 2 hr): rapidly and potently induced
- potency in inducing feedback activation of the MAP kinase pathway ([3]; A375 cells, compared with A77 1726): slightly more potent than A77 1726
- effect on Raf-1 phosphorylation (Raf-1 phosphorylation): no increased Raf-1 phosphorylation
